Reference: ChEMBL document CHEMBL1201862, “PubChem BioAssay data set” (2004)
The source made the active and inactive calls.

Assays:
[1] = Luminescence Cell-Based Dose Confirmation HTS to Identify Inhibitors of Platelet Dense Granule Release. [Related pubchem assays: 1663 (Primary HTS), 1678 (Summary of Project)]; type: functional
[2] = target: Luciferin 4-monooxygenase (Photinus pyralis, UniProt P08659); experiment: firefly luciferase enzyme inhibitors, dose response, biochemical, luminescence (AID 1891)
Sequence of Luciferin 4-monooxygenase (P08659 whole entry): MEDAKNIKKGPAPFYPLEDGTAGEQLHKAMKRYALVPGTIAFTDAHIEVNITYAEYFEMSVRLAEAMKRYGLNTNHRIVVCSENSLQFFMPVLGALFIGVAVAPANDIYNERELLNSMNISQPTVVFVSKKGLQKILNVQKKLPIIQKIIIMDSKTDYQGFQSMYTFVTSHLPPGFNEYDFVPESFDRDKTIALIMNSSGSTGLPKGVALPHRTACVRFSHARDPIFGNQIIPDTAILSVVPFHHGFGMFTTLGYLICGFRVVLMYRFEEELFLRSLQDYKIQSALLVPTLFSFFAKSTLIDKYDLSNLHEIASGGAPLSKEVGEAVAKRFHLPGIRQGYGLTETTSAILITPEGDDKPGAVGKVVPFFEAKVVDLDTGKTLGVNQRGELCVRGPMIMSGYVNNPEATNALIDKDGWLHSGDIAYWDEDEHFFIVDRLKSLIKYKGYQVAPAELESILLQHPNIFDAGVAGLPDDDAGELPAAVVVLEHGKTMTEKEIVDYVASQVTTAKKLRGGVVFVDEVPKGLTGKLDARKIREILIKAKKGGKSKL

[3] = HEp-2 cell cytotoxicity, dose response, cytotoxicity control for RSV inhibitor project, HTS (AID 2410); type: functional; conditions: human respiratory syncytial virus
Large T antigen = Large T antigen (Simian virus 40, UniProt P03070); type: functional, Betapolyomavirus macacae;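 further: Confirmatory-stage PubChem screen for compounds that inhibit SV40 T antigen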
Sequence of Large T antigen (P03070 whole entry): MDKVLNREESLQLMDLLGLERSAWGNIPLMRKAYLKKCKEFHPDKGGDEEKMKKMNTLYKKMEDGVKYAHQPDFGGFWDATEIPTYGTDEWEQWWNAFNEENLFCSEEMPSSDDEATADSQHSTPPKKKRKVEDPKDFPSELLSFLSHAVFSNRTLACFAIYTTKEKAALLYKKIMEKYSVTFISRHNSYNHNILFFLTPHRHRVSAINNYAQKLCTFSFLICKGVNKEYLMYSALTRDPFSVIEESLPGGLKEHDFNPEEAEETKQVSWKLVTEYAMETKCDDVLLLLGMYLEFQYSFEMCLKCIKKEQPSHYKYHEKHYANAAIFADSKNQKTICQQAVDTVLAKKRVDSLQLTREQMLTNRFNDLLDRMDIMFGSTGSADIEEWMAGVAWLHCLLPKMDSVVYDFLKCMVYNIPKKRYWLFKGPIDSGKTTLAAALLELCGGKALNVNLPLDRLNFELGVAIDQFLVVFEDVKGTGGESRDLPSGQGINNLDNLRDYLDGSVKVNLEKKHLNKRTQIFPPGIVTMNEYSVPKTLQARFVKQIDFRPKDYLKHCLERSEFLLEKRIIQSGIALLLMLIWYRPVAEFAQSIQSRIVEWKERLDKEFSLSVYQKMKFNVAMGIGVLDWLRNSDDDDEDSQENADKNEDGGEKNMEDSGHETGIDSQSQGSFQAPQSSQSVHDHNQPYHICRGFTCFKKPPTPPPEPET

[4] = target: FAD-linked sulfhydryl oxidase ALR (Homo sapiens, UniProt P55789); experiment: inhibitors of human ALR sulfhydryl oxidase, dose response, biochemical, H2O2 detection, luminescence, cherry-pick (AID 493248)
Sequence of FAD-linked sulfhydryl oxidase ALR (P55789 whole entry): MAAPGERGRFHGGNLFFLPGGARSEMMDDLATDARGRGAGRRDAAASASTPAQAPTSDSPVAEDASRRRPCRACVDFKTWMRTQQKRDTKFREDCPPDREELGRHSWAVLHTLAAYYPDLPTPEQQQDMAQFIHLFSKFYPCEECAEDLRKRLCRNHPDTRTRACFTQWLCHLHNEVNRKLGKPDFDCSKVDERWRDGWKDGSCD

[5] = target: T1, Histone-lysine N-methyltransferase NSD2 (Homo sapiens, UniProt O96028); type: biochemical
T1 sequence (O96028 whole entry): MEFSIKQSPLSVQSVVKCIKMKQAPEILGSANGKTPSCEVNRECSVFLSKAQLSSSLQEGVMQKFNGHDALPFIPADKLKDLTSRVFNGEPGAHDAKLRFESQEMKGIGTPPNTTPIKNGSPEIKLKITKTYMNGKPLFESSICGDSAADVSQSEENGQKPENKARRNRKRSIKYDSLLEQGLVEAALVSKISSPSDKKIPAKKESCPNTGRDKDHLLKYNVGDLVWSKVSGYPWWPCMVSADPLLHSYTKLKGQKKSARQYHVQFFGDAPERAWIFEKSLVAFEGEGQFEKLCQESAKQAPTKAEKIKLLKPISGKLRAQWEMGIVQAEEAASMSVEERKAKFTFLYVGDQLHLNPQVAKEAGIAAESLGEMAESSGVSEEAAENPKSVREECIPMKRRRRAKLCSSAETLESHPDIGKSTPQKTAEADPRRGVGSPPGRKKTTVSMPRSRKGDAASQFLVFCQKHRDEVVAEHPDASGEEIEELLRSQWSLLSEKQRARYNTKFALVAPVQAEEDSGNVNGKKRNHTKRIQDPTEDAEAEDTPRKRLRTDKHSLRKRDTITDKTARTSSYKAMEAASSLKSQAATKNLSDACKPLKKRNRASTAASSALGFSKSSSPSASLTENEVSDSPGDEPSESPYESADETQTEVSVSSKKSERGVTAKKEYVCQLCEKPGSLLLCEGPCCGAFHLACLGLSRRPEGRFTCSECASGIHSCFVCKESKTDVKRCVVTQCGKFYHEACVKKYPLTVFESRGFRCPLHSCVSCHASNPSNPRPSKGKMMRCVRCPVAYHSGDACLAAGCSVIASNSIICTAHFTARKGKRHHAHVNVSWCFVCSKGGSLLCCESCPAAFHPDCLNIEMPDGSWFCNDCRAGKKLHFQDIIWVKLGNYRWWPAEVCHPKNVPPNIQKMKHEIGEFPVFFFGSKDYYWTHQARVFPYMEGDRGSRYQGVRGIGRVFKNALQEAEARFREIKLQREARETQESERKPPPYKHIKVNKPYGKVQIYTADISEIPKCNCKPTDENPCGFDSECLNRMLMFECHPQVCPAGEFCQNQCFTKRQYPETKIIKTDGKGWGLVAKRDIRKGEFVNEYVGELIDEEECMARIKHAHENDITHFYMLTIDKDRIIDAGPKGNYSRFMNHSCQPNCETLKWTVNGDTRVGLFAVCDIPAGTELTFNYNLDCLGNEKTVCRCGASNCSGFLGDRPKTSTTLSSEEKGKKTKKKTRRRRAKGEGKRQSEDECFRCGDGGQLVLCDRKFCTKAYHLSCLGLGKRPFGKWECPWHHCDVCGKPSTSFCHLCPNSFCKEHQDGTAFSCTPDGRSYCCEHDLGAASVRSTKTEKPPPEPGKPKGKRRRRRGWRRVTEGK

Fatty acid synthase [6] = target: T2, Fatty acid synthase (Homo sapiens, UniProt P49327); experiment: FAS thioesterase domain inhibitors, dose response, biochemical, kinetic fluorescence intensity (AID 624326); type: functional;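 further: rate of fluorescence rise from hydrolysis of a fluorogenic O-methyl fluorescein ester substrate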
T2 sequence (P49327 whole entry, the tested form may be a part): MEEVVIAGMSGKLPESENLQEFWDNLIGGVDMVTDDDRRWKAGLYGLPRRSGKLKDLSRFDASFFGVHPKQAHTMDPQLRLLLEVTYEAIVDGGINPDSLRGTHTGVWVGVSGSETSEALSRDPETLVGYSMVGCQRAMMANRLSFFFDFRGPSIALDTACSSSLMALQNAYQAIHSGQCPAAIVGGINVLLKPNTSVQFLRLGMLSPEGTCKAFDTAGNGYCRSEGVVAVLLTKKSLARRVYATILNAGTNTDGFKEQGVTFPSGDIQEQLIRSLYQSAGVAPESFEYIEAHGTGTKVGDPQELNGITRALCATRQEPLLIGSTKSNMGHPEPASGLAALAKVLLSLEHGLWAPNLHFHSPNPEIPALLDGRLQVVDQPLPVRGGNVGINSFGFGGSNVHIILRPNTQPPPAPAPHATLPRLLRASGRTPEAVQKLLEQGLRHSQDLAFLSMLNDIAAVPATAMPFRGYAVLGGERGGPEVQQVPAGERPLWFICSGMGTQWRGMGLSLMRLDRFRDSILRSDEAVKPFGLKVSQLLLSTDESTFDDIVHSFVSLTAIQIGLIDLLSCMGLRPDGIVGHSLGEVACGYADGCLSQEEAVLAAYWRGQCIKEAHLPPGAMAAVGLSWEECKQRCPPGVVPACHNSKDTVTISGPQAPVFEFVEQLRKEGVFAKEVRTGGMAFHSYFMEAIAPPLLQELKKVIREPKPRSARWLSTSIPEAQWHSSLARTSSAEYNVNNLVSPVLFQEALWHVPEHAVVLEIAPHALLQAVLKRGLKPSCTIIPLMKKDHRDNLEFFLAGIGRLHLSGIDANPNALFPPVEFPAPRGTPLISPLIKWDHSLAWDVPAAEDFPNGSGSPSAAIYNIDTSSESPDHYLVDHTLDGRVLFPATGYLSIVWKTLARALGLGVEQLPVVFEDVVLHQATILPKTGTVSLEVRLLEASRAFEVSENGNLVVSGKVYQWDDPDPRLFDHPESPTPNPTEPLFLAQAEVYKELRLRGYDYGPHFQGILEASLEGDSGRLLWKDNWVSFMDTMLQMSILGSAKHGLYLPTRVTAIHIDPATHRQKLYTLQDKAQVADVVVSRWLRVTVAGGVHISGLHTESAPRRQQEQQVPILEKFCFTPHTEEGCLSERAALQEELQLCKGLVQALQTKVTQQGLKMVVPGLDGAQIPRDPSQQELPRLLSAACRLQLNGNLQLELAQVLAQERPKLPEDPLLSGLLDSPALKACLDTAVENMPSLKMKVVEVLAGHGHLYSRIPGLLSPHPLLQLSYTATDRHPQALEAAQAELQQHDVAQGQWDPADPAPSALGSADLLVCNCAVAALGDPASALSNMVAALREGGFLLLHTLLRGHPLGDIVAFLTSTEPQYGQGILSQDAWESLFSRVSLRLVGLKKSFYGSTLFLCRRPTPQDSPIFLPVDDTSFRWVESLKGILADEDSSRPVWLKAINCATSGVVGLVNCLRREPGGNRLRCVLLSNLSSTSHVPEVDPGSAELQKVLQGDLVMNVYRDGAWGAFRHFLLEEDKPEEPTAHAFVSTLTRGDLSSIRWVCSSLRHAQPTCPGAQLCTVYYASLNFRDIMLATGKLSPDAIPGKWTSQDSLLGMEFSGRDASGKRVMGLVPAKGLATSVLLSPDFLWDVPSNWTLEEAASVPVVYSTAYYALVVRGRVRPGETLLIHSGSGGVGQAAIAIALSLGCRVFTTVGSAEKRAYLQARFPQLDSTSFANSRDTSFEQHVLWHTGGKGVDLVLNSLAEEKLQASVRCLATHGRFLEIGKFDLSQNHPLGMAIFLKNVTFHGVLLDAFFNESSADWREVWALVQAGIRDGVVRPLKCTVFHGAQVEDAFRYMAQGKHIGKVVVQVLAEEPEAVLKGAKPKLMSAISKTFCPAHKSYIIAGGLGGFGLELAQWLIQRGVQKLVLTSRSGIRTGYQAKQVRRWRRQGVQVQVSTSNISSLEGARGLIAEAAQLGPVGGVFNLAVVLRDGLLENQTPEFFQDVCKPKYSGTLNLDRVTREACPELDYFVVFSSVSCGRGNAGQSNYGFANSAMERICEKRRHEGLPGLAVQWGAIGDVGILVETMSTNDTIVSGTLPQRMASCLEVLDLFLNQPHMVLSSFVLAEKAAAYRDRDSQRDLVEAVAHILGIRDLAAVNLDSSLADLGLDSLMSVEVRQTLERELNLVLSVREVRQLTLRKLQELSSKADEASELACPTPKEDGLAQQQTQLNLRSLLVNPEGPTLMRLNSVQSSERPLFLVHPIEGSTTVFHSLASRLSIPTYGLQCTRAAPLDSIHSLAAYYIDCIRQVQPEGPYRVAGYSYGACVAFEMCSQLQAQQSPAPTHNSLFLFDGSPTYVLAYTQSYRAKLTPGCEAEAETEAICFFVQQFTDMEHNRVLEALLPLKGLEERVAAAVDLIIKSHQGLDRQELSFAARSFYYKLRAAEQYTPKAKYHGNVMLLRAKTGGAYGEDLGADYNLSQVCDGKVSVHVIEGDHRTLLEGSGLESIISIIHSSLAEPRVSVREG

Fatty acid synthase [7] = target: T2, Fatty acid synthase; experiment: FAS thioesterase domain inhibitors, dose response, biochemical, endpoint fluorescence intensity, uHTS hits (AID 624327); type: functional;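 further: fluorescence from hydrolysis of an O-methyl fluorescein acyl ester substrate by the enzyme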
H9c2 = experiment: cells; type: functional, cell-based; conditions: Rattus norvegicus, H9c2, Myocardium
[8] = target: T3, Heat shock factor protein 1 (Mus musculus, UniProt P38532); experiment: inhibition of MG132-induced HSE-luciferase signal, confirmation, cell-based, NIH3T3, luminescence, dose retest (AID 2382); type: functional;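 further: NIH3T3 fibroblasts with HSF1-driven luciferase reporter stressed by proteasome inhibitor MG132; luminescence from HSF1-driven luciferase expression after 8 hours of MG132 stress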
T3 sequence (P38532 whole entry): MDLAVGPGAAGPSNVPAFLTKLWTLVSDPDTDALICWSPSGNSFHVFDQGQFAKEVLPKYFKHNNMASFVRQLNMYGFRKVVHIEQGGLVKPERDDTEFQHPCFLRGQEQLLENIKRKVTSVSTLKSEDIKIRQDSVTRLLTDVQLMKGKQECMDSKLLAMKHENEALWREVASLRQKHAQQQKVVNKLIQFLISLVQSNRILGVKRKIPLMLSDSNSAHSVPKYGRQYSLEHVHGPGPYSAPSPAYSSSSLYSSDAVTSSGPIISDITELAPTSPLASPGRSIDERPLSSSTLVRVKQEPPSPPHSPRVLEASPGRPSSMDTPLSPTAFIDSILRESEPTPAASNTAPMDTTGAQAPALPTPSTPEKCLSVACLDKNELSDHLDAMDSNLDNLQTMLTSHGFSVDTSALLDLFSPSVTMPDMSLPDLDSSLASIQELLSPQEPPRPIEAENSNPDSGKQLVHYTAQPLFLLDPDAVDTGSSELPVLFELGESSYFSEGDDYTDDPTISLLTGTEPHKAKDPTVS

[9] = inhibitors of SNCA 5'UTR-driven reporter translation, confirmation, H4 neuroglioma cells, luminescence (AID 1988); type: functional, cell-based
[10] = inhibitors of firefly luciferase expression or activity, dose response, H4 neuroglioma cells, luminescence (AID 1990); type: functional, cell-based
[11] = Luminescence Cell-Based Dose Response HTS to Identify Inhibitors of 5'UTR Stem-Loop Driven Prion Protein mRNA Translation in H4 Neuroglioblastoma Cells. [Related pubchem assays: 1827 (Project Summary), 1813 (Primary HTS)]; type: functional
[12] = inhibitors of intracellular T. cruzi replication, confirmation, NIH3T3 host cells, beta-gal luminescence (AID 2044); type: functional, cell-based;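 further: intracellular parasites grown in NIH/3T3 mouse fibroblasts as host cells; luminescent beta-galactosidase reporter signal from transgenic T. cruzi replicating inside host cells; inhibitors lower the luminescence signal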
[13] = NIH-3T3 fibroblast cytotoxicity, dose response, cytotoxicity control, cell-based, fluorescence, Alamar Blue, secondary assay (AID 2327); type: functional;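 further: NIH-3T3 mouse fibroblasts cultured with fluconazole at 8 µg/mL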
[14] = cytotoxicity toward NIH3T3 fibroblasts, dose response, counter-screen, cell-based, ATP luminescence, mouse fibroblasts (AID 2010); type: functional;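 further: cells exposed to compound for about 90 hours before reading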
[15] = C. albicans growth with fluconazole, confirmation, fluorescence, retest (AID 2467); type: functional, cell-based
[16] = Luminescence Cell-Based Dose Confirmation HTS to Identify Activators of 5'UTR Stem-Loop Driven Alpha-Synuclein mRNA Translation in H4 Neuroglioblastoma Cells. [Related pubchem assays: 1829 (Project Summary), 1814 (Primary HTS)]; type: functional
H4 = experiment: Luminescence Cell-Based Dose Response HTS to Identify Activators of 5'UTR Stem-Loop Driven Prion Protein mRNA Translation in H4 Neuroglioblastoma Cells. [Related pubchem assays: 1829 (Project Summary), 1814 (Primary HTS)]; type: functional; conditions: Homo sapiens
[17] = microbe, parasite or virus in culture; type: functional; conditions: Mycobacterium tuberculosis

## CC1Cc2nc(SCC(=O)N3CCCc4ccccc43)n(C)c(=O)c2S1 (stereo not drawn)
[1]
  EC50: > 112 µM (not active)
[2]
  EC50: > 112 µM (not active)

## CCOC(=O)c1[nH]nc(-c2cc(CC)c(O)cc2O)c1-c1cscn1
[3]
  CC50: 22.6 µM (active)
Large T antigen
  IC50: 20.6 µM (active)

## O=C(NCc1cccnc1)C(=O)NCC(c1ccco1)N1CCN(c2ccccc2)CC1 (stereo not drawn)
[4]
  AC50: 2.78 µM (active)

## COc1ccc(CN2CCN(C(=O)Cn3nc(C(=O)O)c4ccccc4c3=O)CC2)cc1F
[1]
  EC50: 7.7 µM (active)
[2]
  EC50: > 112 µM (not active)

## SC1=NC2(CCCCC2)NN1c1ccccc1
[4]
  AC50: 1.79 µM (active)

## NC(=O)C1CCN(C2=C(NS(=O)(=O)c3ccc(Cl)cc3)C(=O)c3ccccc3C2=O)CC1
[5]
  AC50: 14.1 µM (active)

## O=C(COC(=O)c1cc([N+](=O)[O-])ccc1N1CCOCC1)Nc1ccc(Cl)cc1
Fatty acid synthase [6]
  IC50: 1.96 µM (active)
Fatty acid synthase [7]
  IC50: 2.23 µM (active)

## Cc1cc(C)c([N+](=O)[O-])cc1NCC(=O)N1CCN(c2ccccc2)CC1
Fatty acid synthase [6]
  IC50: 6.55 µM (active)
Fatty acid synthase [7]
  IC50: 9.53 µM (active)

## Cc1cc(F)ccc1NC(=O)c1cc(S(=O)(=O)N2CCOCC2)cn1C
[1]
  EC50: > 112 µM (not active)
[2]
  EC50: > 112 µM (not active)

## CCN(CC(=O)Nc1c(F)cccc1F)C(=O)Cc1nnc(O)c2ccccc12
H9c2
  IC50: > 79 µM (inactive)
[8]
  EC50: > 195 µM (not active)

## O=C(NC12CC3CC(CC(C3)C1)C2)c1cc([N+](=O)[O-])ccc1N1CCOCC1
Fatty acid synthase [6]
  IC50: 14.7 µM (active)
Fatty acid synthase [7]
  IC50: 24.9 µM (inactive)

## O=C(CCN1C(=O)C2C3CCC(C3)C2C1=O)Nc1ccccc1Cl (stereo not drawn)
[1]
  EC50: > 112 µM (not active)
[2]
  EC50: > 112 µM (not active)

## COc1cc2nc(C3CCC3)nc(N3CCN(c4ccccn4)CC3)c2cc1OC
H9c2
  IC50: > 79 µM (inactive)
[9]
  EC50: 15.2 µM (active)
[10]
  EC50: 15.1 µM (active)
[11]
  EC50: 14.6 µM (active)

## CCOc1ccccc1N=C(S)N1CCN(c2ccc(O)cc2)CC1
Large T antigen
  IC50: 6.28 µM (active)

## Cc1ccccc1C(=O)OCn1nnc2ccccc2c1=O
[1]
  EC50: 16.2 µM (active)
[2]
  EC50: > 112 µM (not active)

## NC(=O)N1CCN(C(=O)c2ccco2)CC1
[1]
  EC50: > 112 µM (not active)
[2]
  EC50: > 112 µM (not active)

## Cc1noc(NS(=O)(=O)c2ccc(NC(=O)c3cnc4n(c3=O)CCS4)cc2)c1C
[4]
  AC50: 0.255 µM (active)

## Cn1c(SCc2cccc(Cl)c2)nc(C(F)(F)F)cc1=O
Fatty acid synthase [6]
  IC50: 12.2 µM (active)
Fatty acid synthase [7]
  IC50: 18.4 µM (active)

## Cn1c(S)nnc1CCNC(=O)OC(C)(C)C
[4]
  AC50: 2.79 µM (active)

## CCC[n+]1c2ccccc2cc2ccccc21
[12]
  EC50: 0.157 µM (active)
[13]
  EC50: > 160 µM (inactive)
[14]
  EC50: > 60 µM (not active)
[15]
  EC50: 0.672 µM (active)
Large T antigen
  IC50: 46.2 µM (active)

## CC(C)(C)C1CCc2c(sc3nc(SCC(N)=O)nc(N)c23)C1 (stereo not drawn)
[16]
  EC50: 27.3 µM (active)
H4
  EC50: 24.9 µM (active)
[17]
  CC50: > 40 µM (active)

## Cc1ccc(S(=O)(=O)N2CCN=C2SCc2cccnc2)cc1
[4]
  AC50: 0.046 µM (active)

## CC(C)=NNc1nc(-c2ccccc2)cs1
[4]
  AC50: 0.601 µM (active)

## O=C(Nc1ccn(Cc2ccc(F)cc2)n1)c1ccncc1
[1]
  EC50: > 112 µM (not active)
[2]
  EC50: > 112 µM (not active)

## Cc1ccc(NC(=O)C2CCN(S(=O)(=O)c3ccc4c(c3)NC(=O)C(C)S4)CC2)c(Cl)c1 (stereo not drawn)
[17]
  CC50: > 40 µM (active)

## COc1cccc(N2CCN(Cc3ccc(Cl)cc3)CC2)c1
[1]
  EC50: > 112 µM (not active)
[2]
  EC50: > 112 µM (not active)

## Cc1nn(-c2ccccc2)c2nc(O)c(CNc3ccc(N4CCOCC4)cc3)cc12
Large T antigen
  IC50: 5.01 µM (active)

## COc1ccccc1C(=O)Nc1ccc(C2=NNC(=O)CC2C)cc1 (stereo not drawn)
[1]
  EC50: 0.361 µM (active)
[2]
  EC50: > 112 µM (not active)

## CCOC(=O)CCSc1nc2c(c(C(F)(F)F)c1C#N)CCC2
Fatty acid synthase [6]
  IC50: 8.57 µM (active)
Fatty acid synthase [7]
  IC50: 7.74 µM (active)

## Cc1cccc(-n2c(CCn3nc(C)c([N+](=O)[O-])c3C)n[nH]c2=S)c1
[4]
  AC50: 4.3 µM (active)

## CC1CCCN(C(=O)COC(=O)c2cc([N+](=O)[O-])ccc2N2CCOCC2)C1 (stereo not drawn)
Fatty acid synthase [6]
  IC50: 1.91 µM (active)
Fatty acid synthase [7]
  IC50: 2.27 µM (active)

## Cc1ccc(S(=O)(=O)N2CCN(C(=O)COC(=O)c3cc([N+](=O)[O-])ccc3NCCO)CC2)c(C)c1
Fatty acid synthase [6]
  IC50: 2.7 µM (active)
Fatty acid synthase [7]
  IC50: 6.04 µM (active)

## COc1ccc(CNC(=O)C[C@H]2C[C@H](C(=O)N3CCOCC3)[C@@]3(CCC4CCCC4)c4[nH]c5ccc(Cl)cc5c4CCN3C2=O)cc1OC
Fatty acid synthase [6]
  IC50: 0.878 µM (active)
Fatty acid synthase [7]
  IC50: 1.71 µM (active)

## COc1ccc(Cl)cc1-c1cc(C(=O)NCc2ccc(C(F)(F)F)cc2)[nH]n1
Fatty acid synthase [6]
  IC50: 17.1 µM (active)
Fatty acid synthase [7]
  IC50: 15.4 µM (active)

## C=CCn1c(=O)/c(=C/c2ccc(Cl)cc2)s/c1=C(/C#N)c1nnc2n1CCCCC2
[17]
  CC50: 40 µM (active)

## C(=N\c1ccc(Nc2ccccc2)cc1)/c1ccc2ccccc2c1
Large T antigen
  IC50: 8.25 µM (active)

## CCN1CCCCC(=N/O)/C(=N/O)CCCC1
[5]
  AC50: > 20 µM (inactive)

## COc1ccc(C(=O)Oc2ccc(/C=N/O)cc2)cc1
[8]
  EC50: > 195 µM (not active)
[4]
  AC50: 0.247 µM (active)
